Results published in US4269971A, “Antibiotic TM-531” (Taisho Pharmaceutical Co., Ltd., priority 1978, dated 1981).

What was measured:
Eimeria tenella = assay: Activity against Eimeria tenella in infected chicks; format: in vivo, Eimeria tenella in male chicks (white leghorn); conditions: 0.01% by weight in feed, 8 days after infection
Experimental: Male chicks (white leghorn species) immediately after hatching were fed with a mixed feed for chicks containing no anti-coccidium agent until the test started. On the 8th day of feeding, health conditions of the test chicks were observed and the body weight was determined thereby dividing the test chicks into three groups, each group comprising 10 chicks and having an equal distribution of body weight. The test group was fed with a mixed feed for chicks containing 0.01% by weight of antibiotic TM-531 and the infected control group and the healthy group were fed with the same mixed feed but containing no antibiotic TM-531. On the 48th hour of feeding, each of chicks of the test group and the infected control group was infected with 9×10^4 mature oocysts of Eimeria tenella by oral administration. Eight days after infection, body weight increase (%), mortality (%) and O.P.G. [The number of oocysts (×10^4) present in 1 g of the content of caecum] were determined, and faeces conditions were observed and compared with those of the healthy group to determine the activity of antibiotic TM-531 against Eimeria tenella.

protozoa = assay: Physiological properties: activity on protozoa; conditions: protozoa as hog dysentery, coccidium, toxoplasma, trypanosome, malaria, etc.; in words
[1] = system: gram-negative bacteria and yeasts; assay: Physiological properties: activity on gram-negative bacteria and yeasts; conditions: in words
Toxoplasma tachyzoites = assay: Antitoxoplasma activity in infected mice macrophage culture; format: cell-based, Toxoplasma (in mice macrophage); conditions: 0.1 ppm, 37° C., 48 hours
Experimental: (§1) A mice macrophage cultured on a TC-199 medium containing 20% of calf serum was infected with Toxoplasma tachyzoites (hereinafter referred to as "T. tachyzoites") and cultured at 37° C. for about 1 hour. Thereafter, the resulting culture was washed with a phosphate buffer having pH 7.2 to wash out non-infected T. tachyzoites and an ethanol solution of antibiotic TM-531 was added to the medium at an appropriate concentration of antibiotic TM-531. The medium containing the protozoa and antibiotic TM-531 was incubated at 37° C. for 48 hours and then stained with Trypan Blue, and the number of T. tachyzoites per 100 macrophages was counted to determine the antitoxoplasma activity of antibiotic TM-531 as compared with the number of T. tachyzoites per 100 macrophages in the control medium containing no antibiotic TM-531.

Piricularia sasakii = format: cell-based; conditions: 28° C., 7 days
Solubility = format: physicochemical
[2] = system: gram-positive and plant pathogenic microorganisms; assay: Physiological properties: growth inhibitory activity; conditions: in words
Glomerella cingulata = assay: Growth inhibitory activity on plant pathogenic microorganisms (colony diameter); format: cell-based; conditions: 100 mcg/ml, 28° C., 7 days, control medium 27.3 mm
macrophage = assay: Toxic sign on macrophage by optical microscope; format: cell-based; conditions: mice macrophage culture with TM-531
Experimental: as §1

Gibberella fujikuroi = assay: Growth inhibitory activity on plant pathogenic microorganisms (colony diameter); format: cell-based; conditions: 100 mcg/ml, 28° C., 7 days, control medium 27.6 mm
Botrytis cinerea = assay: as above; format: cell-based; conditions: 100 mcg/ml, 28° C., 7 days, control medium 47.7 mm
[3] = system: Helminthosporium sigmoldeum; assay: as above; format: cell-based; conditions: 100 mcg/ml, 28° C., 7 days, control medium 22.8 mm
[4] = system: Staphylococcus aureus FDA 209 P; assay: Antimicrobial activity (MIC), agar medium; format: cell-based; conditions: heart infusion agar
Experimental: (§2) The antimicrobial activity of antibiotic TM-531 was determined in terms of the minimum inhibitory concentration (MIC) using a heart infusion agar medium for the determination of activity on bacteria and a potato dextrose agar medium for the determination of activity on fungi and yeast.

Trichophyton asteroides = assay: Antimicrobial activity (MIC), agar medium; format: cell-based; conditions: potato dextrose agar
Experimental: as §2

Proteus vulgaris HX 19 = assay: Antimicrobial activity (MIC), agar medium; format: cell-based; conditions: heart infusion agar
Experimental: as §2

[5] = system: Streptococcus faecalis ATCC 8043; assay: Antimicrobial activity (MIC), agar medium; format: cell-based; conditions: heart infusion agar
Experimental: as §2

[6] = system: Bacillus subtilis ATCC 6633; assay: Antimicrobial activity (MIC), agar medium; format: cell-based; conditions: heart infusion agar
Experimental: as §2

[7] = system: Escherichia coli NIHJ C-2; assay: Antimicrobial activity (MIC), agar medium; format: cell-based; conditions: heart infusion agar
Experimental: as §2

Saccharomyces cerevisiae = assay: Antimicrobial activity (MIC), agar medium; format: cell-based; conditions: potato dextrose agar
Experimental: as §2

Candida albicans = assay: Antimicrobial activity (MIC), agar medium; format: cell-based; conditions: potato dextrose agar
Experimental: as §2

[8] = system: Staphylococcus aureus TRP-23; assay: Antimicrobial activity (MIC), agar medium; format: cell-based; conditions: heart infusion agar
Experimental: as §2

Corynebacterium xerosis = assay: Antimicrobial activity (MIC), agar medium; format: cell-based; conditions: heart infusion agar
Experimental: as §2

[9] = system: Staphylococcus aureus Smith; assay: Antimicrobial activity (MIC), agar medium; format: cell-based; conditions: heart infusion agar
Experimental: as §2

Bacillus licheniformis = assay: Antimicrobial activity (MIC), agar medium; format: cell-based; conditions: heart infusion agar
Experimental: as §2

[10] = system: Aspergillus niger NHL 5088; assay: Antimicrobial activity (MIC), agar medium; format: cell-based; conditions: potato dextrose agar
Experimental: as §2

[11] = system: Penicillium citrinum IAM 7003; assay: Antimicrobial activity (MIC), agar medium; format: cell-based; conditions: potato dextrose agar
Experimental: as §2

Micrococcus luteus NIHJ = assay: Antimicrobial activity (MIC), agar medium; format: cell-based; conditions: heart infusion agar
Experimental: as §2

[12] = system: Pseudomonas aeruginosa IID 1052; assay: Antimicrobial activity (MIC), agar medium; format: cell-based; conditions: heart infusion agar
Experimental: as §2

[13] = system: Staphylococcus epidermidis TPR-25; assay: Antimicrobial activity (MIC), agar medium; format: cell-based; conditions: heart infusion agar
Experimental: as §2

[14] = system: Staphylococcus epidermidis TRP-13; assay: Antimicrobial activity (MIC), agar medium; format: cell-based; conditions: heart infusion agar
Experimental: as §2

## COC1CCC(OC2CC(C3(C)CCC4(CC(O)C(C)C(C(C)/C=C(\C)C(=O)C(C)CC(C)C(=O)O)O4)O3)OC3(OC(C4OC(C)(O)C(C)CC4C)CC3C)C2C)OC1C (centres unmarked) [TM-531]
Eimeria tenella; infected control 17.3, healthy control 0
  O.P.G. (number of oocysts present in 1 g of the content of caecum): 0 × 10^4
Eimeria tenella; infected control 60, healthy control 0
  Mortality: 0%
Eimeria tenella; infected control 77.0, healthy control 100.0
  Body Weight Increase: 105.1%
Eimeria tenella; infected control loose passage 100%, hemafecial 80%
  Faeces Conditions: Normal
protozoa
  effect on protozoa: effective on protozoa
[1]
  effect on gram-negative bacteria and yeasts: ineffective on gram-negative bacteria and yeasts
Toxoplasma tachyzoites; T. tachyzoites 1 ~ 5/cell, control medium 30.8
  Percent Macrophage infected with T. tachyzoites, 1 ~ 5/cell: 0%
Toxoplasma tachyzoites; T. tachyzoites ≥6/cell, control medium 22.4
  Percent Macrophage infected with T. tachyzoites, ≥6/cell: 0%
Piricularia sasakii
  Colony Diameter, TM-531 Containing Medium: 63.0 mm
Solubility; methanol, ethanol, acetone, ethyl acetate, diethyl ether, benzene, chloroform, hexane and petroleum ether
  Solubility in organic solvents: soluble in methanol, ethanol, acetone, ethyl acetate, diethyl ether, benzene, chloroform, hexane and petroleum ether
Solubility; water
  Solubility in water: insoluble in water
[2]
  growth inhibitory activity: exhibits growth inhibitory activity
Glomerella cingulata
  Colony Diameter, TM-531 Containing Medium: 13.4 mm
macrophage
  toxic sign on macrophage: no toxic sign on macrophage
Gibberella fujikuroi
  Colony Diameter, TM-531 Containing Medium: 20.2 mm
Botrytis cinerea
  Colony Diameter, TM-531 Containing Medium: 46.7 mm
[3]
  Colony Diameter, TM-531 Containing Medium: 15.4 mm
[4]
  Minimum Inhibitory Concentration: 1.56 µg/mL
Trichophyton asteroides
  Minimum Inhibitory Concentration: > 100 µg/mL
Proteus vulgaris HX 19
  Minimum Inhibitory Concentration: > 100 µg/mL
[5]
  Minimum Inhibitory Concentration: 6.25 µg/mL
[6]
  Minimum Inhibitory Concentration: 1.56 µg/mL
[7]
  Minimum Inhibitory Concentration: > 100 µg/mL
Saccharomyces cerevisiae
  Minimum Inhibitory Concentration: > 100 µg/mL
Candida albicans
  Minimum Inhibitory Concentration: > 100 µg/mL
[8]
  Minimum Inhibitory Concentration: 3.13 µg/mL
Corynebacterium xerosis
  Minimum Inhibitory Concentration: 1.56 µg/mL
[9]
  Minimum Inhibitory Concentration: 6.25 µg/mL
Bacillus licheniformis
  Minimum Inhibitory Concentration: 1.56 µg/mL
[10]
  Minimum Inhibitory Concentration: > 100 µg/mL
[11]
  Minimum Inhibitory Concentration: > 100 µg/mL
Micrococcus luteus NIHJ
  Minimum Inhibitory Concentration: 3.13 µg/mL
[12]
  Minimum Inhibitory Concentration: > 100 µg/mL
[13]
  Minimum Inhibitory Concentration: 3.13 µg/mL
[14]
  Minimum Inhibitory Concentration: 3.13 µg/mL
